Values of other authors, collected in patent US10196371B2, “Compounds for the treatment of HPV-induced carcinoma” (Åbo Akademi, priority 2014, dated 2019).

Columns and labels:
[1] = test system: HPV16 positive cervical cancer cells

Question: For `C=C1C(=O)OC2/C=C(/C)CC/C=C(\C(=O)O)CC/C=C(\C)CCC12` (centres unmarked) [anisomelic acid], which “efficiency in inducing apoptosis” value [1] is on record?
Answer: good efficiency

Question: And the “protein level expression of E6 and E7” value (E6 and E7)?
Answer: inhibits
